Data: patent publication US6602499B1, “Combination viral-based and gene-based therapy of tumors” (priority 1998, dated 2003)

Assays:
9L cells = assay: Viral yields from infected 9L cells treated with cyclophosphamide, plaque assay on Vero cells; type: cell-based, rat; settings: 9L cells infected with rRp450 in presence or absence of cyclophosphamide, three days
Experimental: Three day later, cells and supernatants were harvested and virus was harvested by freeze-thawing three times. Plaque-assays on Vero cells were performed to measure viral yields. Assay was performed in triplicate plates.
Cell culture studies: Cells were usually plated the day before viral infection. The following day, 3 random dishes were trypsinized and cell numbers were enumerated using a Coulter counter. Based on the mean cell number, the viral mutant was added to achieve the desired multiplicity of infection (MOI). Experiments were performed in triplicate dishes.
CPA: CPA was added at the start of the incubation period at a concentration of 250 Um.

[1] = tested on: rRp450- and hrR3-infected 9L cells; assay: Viral protein synthesis (35S-methionine pulse, autoradiography) in infected 9L cells; type: cell-based, rat; settings: 9L cells grown with 250 uM CPA or 100 ng/ml ganciclovir for 30 hours, then infected with rRp450 or hrR3 at MOI=3
Experimental: FIG. 4 is an autoradiograph depicting the effect of CPA on rRp450 protein synthesis in infected 9L tumor cells. 9L tumor cells were grown in the presence of CPA (lanes 3 and 6), 100 ng/ml ganciclovir (lanes 2 and 5), or vehicle (lanes 1 and 4). Cells from each group were then infected with rRp450 (lanes 4-6) or hrR3 (lanes 1-3). After pulsing with ^35S-methionine, cell lysates were separated by electrophoresis. The designations, 6,5,8, gB, and pgB indicate the viral ICP6-lacZ fusion, ICP5, ICP8, and glycoprotein B, respectively. The size of molecular weight markers is indicated on the left side of the blot.
Measurement of Viral Protein Synthesis: 9L tumor cells were grown in the presence of 250 uM CPA, 100 ng/ml ganciclovir, or vehicle for 30 hours. Cells from each group were then infected with rRp450 or hrR3 at an MOI=3. Control plates were infected with a mock viral preparation. Eighteen hours later, medium was removed and fresh medium containing 20 uCi of ^35S-methionine was added. Cells were then scraped and harvested two hours later. Cell pellets were resuspended in sodium phosphate, pH=7.3. in 0.9% sodium chloride in the presence of protease inhibitors and then sheared by passage through a 28 and a ½ gauge needle. Protein concentrations were calculated by using a commercially available kit (BioRad). […]

Vero cells = type: cell-based; settings: CPA at concentrations up to 200 uM
human U87 tumors = assay: Subcutaneous human U87 glioma tumors in athymic mice, intratumoral injection; type: in vivo; settings: rRp450 2.5×10^8 pfus plus vehicle, or 1 mg CPA alone
Description: FIG. 6B is a graph depicting the in vivo augmentation of rRp450's oncolytic effect by CPA on U87 tumors. Human U87 tumors were inoculated with CPA (closed circles), rRp450 plus vehicle (open circles), or rRp450 plus CPA (dark squares). The black vertical arrows indicate the times of injection (days 1, 2, 4, and 6). Values represent the average tumor volume from 5 mice per group. Error bars represent the standard error of the mean. For this experiment, differences were statistically significant at the 22, 26 and 29 day time point (P<0.05, one way analysis of variance).
In a similar experiment, visible subcutaneous nodules (the range of volumes was 10-135 mm^3 and the average volume was 74 mm^3) were established by the injection of 10^6 human U87 glioma cells into the subcutaneous flank of athymic mice (NCY/sed, nu/nu; MGH breeding colony). Thirty days later the tumors were treated with intratumoral injections, using a Hamilton syringe, of 1 mg CPA in 125 ul of medium, rRp450 (2.5×10^8 pfus) plus vehicle in 125 ul of medium, or rRp450 (2.5×10^8 pfus) plus 1 mg CPA in 125 ul of medium. Tumor inoculations were repeated on day 2, day 4 and day 6. Five mice were used per treatment group. […]

Row | SMILES | Effect of CPA on replication of rRp450 (9L cells) | Effect of drug on viral protein synthesis [1] | Inhibition of plaque production (Vero cells) | Growth of U87 tumors, agent alone (human U87 tumors)
1 | O=P1(N(CCCl)CCCl)NCCCO1 (stereo not drawn) [CPA, cyclophosphamide] | did not significantly inhibit replication of rRp450 | did not appear to significantly inhibit viral protein synthesis | did not inhibit plaque production | relatively rapid
2 | Nc1nc(O)c2ncn(COC(CO)CO)c2n1 [ganciclovir] | – | inhibited the synthesis of viral proteins | did | –
